Legend:
[1] = system: NMA (200 μM) neurotoxicity in chick embryo retina; experiment: NMDA/KA Antagonist Assay: prevention of NMA neurotoxicity in chick embryo retina; format: cell-based; settings: Gallus gallus, 0.5 h, 15-day old chick embryo retina, 30 min at 37° C., criterion: complete prevention of toxicity in all specimens, read-out: concentration providing total protection against toxicity of NMA
Protocol: (§1) A 15-day old chick embryo retina, incubated for 30 min. in a balanced salt solution (BSS) containing 1 mM Glu, developed a full lesion resembling that described in the immature mouse retina following s.c. administration of Glu. Other excitotoxin agonists also produce acute lesions within 30 min., each agent being effective at a concentration proportional to its known excitatory and toxic potencies. The pattern of cellular degeneration is restricted in each case to the ganglion cell, inner plexiform and inner nuclear layers, but within these areas certain agonists induce different patterns of degeneration, the differences being most pronounced between NMA and KA. Two agonists were employed in the present test, each at a concentration established previously to be the lowest concentration required to consistently cause a fully-developed retinal lesion: KA (25 μM) and NMA (200 μM). Mecamylamine was tested at various concentrations for its ability to prevent KA or NMA neurotoxicity. Although partial blocking was sometimes observed for antagonist concentrations below the threshold for complete protection, the criterion used for comparing agents for antagonist potency was the concentration required to completely prevent KA or NMA from exerting any toxic activity in any specimen (n>6) studied at that concentration. […]

[2] = system: KA (25 μM) neurotoxicity in chick embryo retina; experiment: NMDA/KA Antagonist Assay: prevention of KA neurotoxicity in chick embryo retina; format: cell-based; settings: 15-day old chick embryo retina, 30 min at 37° C., tested at various concentrations
Protocol: as §1

[3] = target: PCP receptor (binding of the PCP ligand 3H-TCP); experiment: Receptor Binding Assay: inhibition of 3H-TCP binding in frozen brain sections; settings: frozen brain sections (10 microns), 20 nM 3H-TCP, 45 min at 4° C., Scatchard/Rosenthal analysis
Protocol: Prevention of the neurodegenerative consequences associated with conditions of hypoxia or ischemia may be accomplished with administration of a compound of Formula I. In particular, the compound 3-methylamino-2,2,3-trimethylbicyclo[2.2.1]heptane (mecamylamine) was evaluated in biological assays designed to detect compounds capable of inhibiting hypoxia/ischemia-induced neuronal degeneration. Mecamylamine was evaluated for its ability to inhibit the binding of the PCP ligand tritiated 1-[1-(2-thienyl)cyclohexyl]piperidine [^3 H-TCP].
For receptor binding, frozen brain sections (10 microns) were incubated in […] tris acetate (pH 7.25) containing 0.5 mM magnesium acetate and 20 nM ^3 H-TCP for 45 min. at 4° C. Non-specific binding was assessed with 200 μM PCP. Inhibition of ^3 H-TCP binding was studied by including potential inhibitors in the ^3 H-TCP incubation at concentrations from 10 nM to 1 mM. Dissociation and inhibition constants were calculated by Scatchard/Rosenthal analysis of data obtained by liquid scintillation counting of whole sections.

For `CNC1(C)C2CCC(C2)C1(C)C` (stereo not drawn) [mecamylamine, 3-(methylamino)-2,2,3-trimethylbicyclo[2.2.1]heptane], the EC100 [1] was 100 µM, the “blocking of KA toxicity” value [2] was “not observed” and the Ki [3] was 122 µM.
